Test results reported in article PMC10451377, “Rationally Designed Pyrimidine Compounds: Promising Novel Antibiotics for the Treatment of Staphylococcus aureus-Associated Bovine Mastitis” (Antibiotics, 2023).
Converted amounts (≈) assume the structure as drawn. “Also recorded” adds a separate entry of the source.

Assays:
S. haemolitycus = assay: Susceptibility of isolate panel (MIC50, MIC90, range); assay type: cell-based, S. haemolyticus
From the text: (§1) Reference strains for this study (S. aureus ATCC 29213, ATCC 29740 [bovine mastitis strain Newbould], S. epidermidis ATCC 12228, E. coli ATCC 35695, E. faecalis ATCC 29212) were obtained from the American Type Culture Collection (ATCC, Rockville, MD). S. aureus strains CMRSA-10 and CMRSA-2 were obtained from the Laboratoire de santé publique du Québec (LSPQ, Sainte-Anne-de-Bellevue, QC, Canada) and are Canadian CA-MRSA USA-300 and HA-MRSA USA-100 clones, respectively. The strain E. coli imp4213 (lptD), used as a control in MIC assays, is a derivative of E. coli ATCC 35695 (E. coli MC4100) with an increased membrane permeability. […] Other MRSA strains used in this study are clinical isolates of human origin obtained from the microbiology laboratory of the Centre Hospitalier Universitaire de Sherbrooke (CHUS, Sherbrooke, QC, Canada). Bovine mastitis strains (S. aureus, S. chromogenes, S. haemolyticus, S. hominis, S. simulans) were obtained from the Canadian Bovine Mastitis and Milk Quality Research Network (CBRQMN, St-Hyacinthe, QC, Canada). Among these strains, S. aureus 2117 is a high producer of biofilm and was used in the biofilm-eradication assay. S. epidermidis isolates were provided by Centre de Recherche en Infectiologie (CRI) de Québec (Québec, QC, Canada).
The antibacterial activity of the most promising compound, PC206, was also evaluated against larger groups of clinical isolates of human and animal origin. The MIC50 and MIC90 values represented the concentrations of drug required to inhibit the growth of 50% and 90% of the bacterial strains tested, respectively.

Metabolic stability = assay type: in vitro ADME; conditions: mouse, CD-1 female mice liver S9 fraction, 60 min, mono-exponential decay model, read-out: Half-life (T1/2)
Procedure: All incubations were performed minimally in triplicate. A total of 1 mL of mice liver S9 fraction (XenoTech, Kansas City, KS, USA) was fortified with 50 μL of NADPH-regenerating solution A and 10 μL of solution B (Corning BD Biosciences catalog no. 451200) and preincubated at 37 °C for 5 min prior to the addition of PC206. Immediately after fortification of PC206 into the mice liver S9 fraction containing the NADPH-regeneration system, the sampling points were taken at 2, 5, 10, 15, 30, 45 and 60 min for metabolic stability experiments (i.e., the substrate concentration was 10 μM). Samples of 50 μL were taken and mixed with 250 μL of the internal standard solution (caffeine) in microcentrifuge tubes. The samples were centrifuged at 12,000× g for 10 min and 200 μL of the supernatant was transferred into an injection vial for HPLC-MS analysis. A Q Exactive Orbitrap Mass Spectrometer was interfaced with a Vanquish Flex UHPLC system (Thermo Fisher Scientific, Rochester, NY, USA). […] Targeted drug quantification was performed by MS detection using specific precursor masses based on monoisotopic masses (i.e., [M + H]^+ ions). Quantification was performed by extracting specific precursor ions using a 5 ppm mass window.

[1] = Initial safety assessment in cows; assay type: in vivo; conditions: single intramammary infusion of 100, 250 or 500 mg
Procedure: The innocuity of PC206 was evaluated in cows, as previously described for other test substances. Following morning milking, each of the four mammary gland quarters […] was infused with various doses of PC206 (100, 250, 500 mg) or saline as a negative control. […] Cows were milked using an individual quarter-milking unit in order to measure individual quarter-milk production. PC206 concentration in milk was also measured; milk samples were diluted with an equal volume of isopropanol and washed 3 times with hexane. PC206 was extracted using ethyl acetate, filtered on Na2SO4, and evaporated. The dried samples were diluted 80:20 in ACN:H2O containing an internal standard. The content of PC206 was determined using single-ion monitoring (SIMS) on UPLC-MS.

[2] = system: Staphylococcus aureus CMRSA-10; assay: Broth microdilution MIC; assay type: cell-based; conditions: CMRSA10, S. aureus CMRSA-10, read-out: Broth Microdilution MIC
From the text: as §1

LDH release assay = assay type: cell-based; conditions: bovine, MAC-T cells
[3] = system: S. aureus Newbould (ATCC 29740); assay: Murine mastitis model; conditions: two intramammary doses of 500 µg
[4] = system: S. aureus Newbould, S. aureus CMRSA-10, S. epidermidis ATCC 12228; assay: Kill kinetics; assay type: cell-based, staphylococci
Procedure: Time-kill kinetics studies were performed to define the bactericidal effect of PC206. S. aureus Newbould, CMRSA-10, or S. epidermidis ATCC 12228 were inoculated at a density of approximately 5 × 10^5 CFU/mL in CAMHB in the absence or presence of PC206 and were incubated with agitation (225 rpm) for 24 h at 35 °C. Right before inoculation and 0.5, 1, 2, 4, 8 and 24 h thereafter, bacterial cultures were sampled, serially diluted, and plated on tryptic soya agar (TSA) plates that were incubated at 35 °C for 24 h to determine viable counts with a detection limit of 2 log10 CFU/mL.

[5] = system: all reference staphylococci strains tested, including MRSA; assay: Broth microdilution MIC, summary over reference staphylococci; conditions: Staphylococcus aureus, read-out: MIC ranging, against all reference staphylococci strains tested
[6] = system: Bacillus subtilis xpt-lacZ; assay: Broth microdilution MIC; assay type: cell-based; conditions: B. subtilis xpt-lacZ, read-out: Broth Microdilution MIC

**Q.** For `CCCCCCNc1cc(N)nc(N)n1` [PC206], which “MIC Range” value (S. haemolitycus; S. haemolitycus, 10 isolates) is on record?
**A.** The value was 4 to 128 µg/mL.

**Q.** And the MIC90 (S. haemolitycus; Staphylococcus haemolyticus)?
**A.** The MIC90 was 128 µg/mL (≈ 612 µM).

**Q.** What about the MIC50 (S. haemolitycus; Staphylococcus haemolyticus, S. haemolitycus, 10 isolates, read-out: MIC50) of the same molecule?
**A.** The MIC50 was 64 µg/mL (≈ 306 µM).

**Q.** What about the half-life at 10 µM (Metabolic stability) of the same molecule?
**A.** Its half-life at 10 µM is 1.39 h.

**Q.** And the Body temperature [1]?
**A.** The Body temperature was “around 38 °C”.

**Q.** What about the “Redness or swelling of quarters at milking” value [1] of the same molecule?
**A.** The value was “Neither redness nor swelling was observed”.

**Q.** What about the “Somatic cell counts and quarter-milk production” value ([1]; 69 h) of the same molecule?
**A.** The value was “remained unaffected; also recorded: did not impact somatic cells count”.

**Q.** And the MIC [2]?
**A.** The MIC was 4 µg/mL (≈ 19.1 µM).

**Q.** And the CC50 at 24 h (LDH release assay; 24 h)?
**A.** The CC50 at 24 h was greater than 600 µM.

**Q.** What about the CC50 at 24 h (LDH release assay; converted from μM) of the same molecule?
**A.** The CC50 at 24 h was greater than 125 µg/mL.

**Q.** And the “Tolerability in mice and mammary gland tissues” value [3]?
**A.** Its value is “No inflammation, damage, nor adverse effects were observed”.

**Q.** What about the “Difference in median bacterial counts versus untreated mice” value ([3]; 1 and 4 h after infection, glands harvested 14 h post-infection) of the same molecule?
**A.** Its value is 1.24 log10 CFU/g of gland.

**Q.** And the “Reduction of bacterial viable counts at 24 h compared to the initial inoculum” value ([4]; 4× MIC)?
**A.** Its value is 0.5–1.5 log10 CFU/mL.

**Q.** What about the “Qualification from kill kinetics” value ([4]; up to 4× MIC, 24 h) of the same molecule?
**A.** The value was “bacteriostatic agent”.

**Q.** What about the MIC [5] of the same molecule?
**A.** Its MIC is 4 to 8 µg/mL (≈ 19.1 to 38.2 µM).

**Q.** What about the MIC [6] of the same molecule?
**A.** Its MIC is 128 µg/mL (≈ 612 µM).
